Test results reported in US9156872B2, “2′-azido substituted nucleoside derivatives and methods of use thereof for the treatment of viral diseases” (priority 2011, dated 2015).
pEC50: −log10 of the molar value.

system: HCV replicon cells; assay: Cell-based HCV replicon assay (replicon RNA by Taqman real time PCR); settings: HCV replicon 1b, cells harvested on day 3; read-out: 1b EC50

Compared with `CCOc1nc(N)nc2c1ncn2[C@@H]1O[C@@H]2COP(=O)(OC3CCC3)O[C@H]2[C@@]1(C)N=[N+]=[N-]` (single isomer, unassigned) [Compound 107], `C[C@@]1(N=[N+]=[N-])[C@@H]2OP(=O)(OC3CCCC3)OC[C@H]2O[C@H]1n1ccc(=O)[nH]c1=O` (single isomer, unassigned) [Compound 562] is 1.67 log units higher in pEC50: 4.73 for the first, 6.40 for the second. The second is the more potent here.

First: C[C@@]1(N=[N+]=[N-])[C@@H]2OP(=O)(OC3CCCC3)OC[C@H]2O[C@H]1n1ccc(=O)[nH]c1=O (single isomer, unassigned) [Compound 561]
Second: CC(C)OP1(=O)OC[C@H]2O[C@@H](n3ccc(=O)[nH]c3=O)[C@](C)(N=[N+]=[N-])[C@@H]2O1 (single isomer, unassigned) [Compound 564]
The pEC50 of the first is higher: 5.51 for the first, < 4.00 for the second.

same assay, conditions: Hepatitis C virus, 72 h, HCV replicon 1b, cells harvested on day 3; read-out: 1b EC50

`C[C@@]1(N=[N+]=[N-])[C@H](O)[C@@H](CO)O[C@H]1n1cnc2c(=O)[nH]c(N)nc21` [Compound 17] and `COc1nc(N)nc2c1ncn2[C@@H]1O[C@H](CO)[C@@H](O)[C@@]1(C)N=[N+]=[N-]` [Compound 51] cannot be ordered by pEC50: < 4.00 for the first, < 4.00 for the second.

same assay, conditions: Hepatitis C virus, 72 h, read-out: 1b EC50

Compared with `CCOC(=O)[C@H](C)NP(=O)(OC[C@H]1O[C@@H](n2cnc3c(OCC)nc(N)nc32)[C@](C)(N=[N+]=[N-])[C@@H]1O)Oc1ccc(Cl)cc1` (single isomer, unassigned) [Compound 352], `CCOC(=O)[C@H](C)NP(=O)(OC[C@H]1O[C@@H](n2cnc3c(OCC)nc(N)nc32)[C@](C)(N=[N+]=[N-])[C@@H]1O)Oc1ccc(F)cc1` (single isomer, unassigned) [Compound 175] is 0.44 log units higher in pEC50: 5.96 for the first, 6.40 for the second.

First: CCCOC(=O)[C@H](C)NP(=O)(OC[C@H]1O[C@@H](n2ccc(=O)[nH]c2=O)[C@](C)(N=[N+]=[N-])[C@@H]1O)Oc1ccccc1 (stereo partly shown) [Compound 28]
Second: C[C@H](NP(=O)(OC[C@H]1O[C@@H](n2ccc(=O)[nH]c2=O)[C@](C)(N=[N+]=[N-])[C@@H]1O)Oc1ccccc1)C(=O)O[C@H](C)c1ccccc1 (single isomer, unassigned) [Compound 302]
The pEC50 of the first is 1.04 log units higher: 5.64 for the first, 4.60 for the second. The first is the more potent here.

`CC(C)COC(=O)[C@H](C)NP(=O)(OC[C@H]1O[C@@H](n2ccc(N)nc2=O)[C@](C)(N=[N+]=[N-])[C@@H]1O)Oc1ccccc1` (stereo partly shown) [Compound 48] and `CC(C)OC(=O)[C@H](C)NP(=O)(OC[C@H]1O[C@@H](n2ccc(N)nc2=O)[C@](C)(N=[N+]=[N-])[C@@H]1O)Oc1ccccc1` (stereo partly shown) [Compound 22] are the same in pEC50: 5.51 for the first, 5.51 for the second.

`COC(=O)[C@H](C)NP(=O)(OC[C@H]1O[C@@H](n2cnc3c(OC)nc(N)nc32)[C@](C)(N=[N+]=[N-])[C@@H]1O)Oc1ccccc1Cl` (single isomer, unassigned) [Compound 256] and `COc1nc(N)nc2c1ncn2[C@@H]1O[C@H](COP(=O)(N[C@@H](C)C(=O)OC(C)C)Oc2ccccc2)C(O)[C@@]1(C)N=[N+]=[N-]` (single isomer, unassigned) [Compound 252] are within 0.2 log units of each other in pEC50: 5.85 for the first, 5.96 for the second.

Going from `COc1nc(N)nc2c1ncn2[C@@H]1O[C@H](COP(=O)(N[C@@H](C)C(=O)OC2CCCCC2)Oc2ccccc2)[C@@H](O)[C@@]1(C)N=[N+]=[N-]` (stereo partly shown) [Compound 239] to `CCCOC(=O)[C@H](C)NP(=O)(OC[C@H]1O[C@@H](n2cnc3c(OCC)nc(N)nc32)[C@](C)(N=[N+]=[N-])[C@@H]1O)Oc1ccccc1` (stereo partly shown) [Compound 29], the pEC50 rises from 5.44 to 6.30 (0.86 log units).

Going from `CCCCOC(=O)[C@H](C)NP(=O)(OC[C@H]1O[C@@H](n2cnc3c(OCC)nc(N)nc32)[C@](C)(N=[N+]=[N-])[C@@H]1O)Oc1cccc2ccccc12` (single isomer, unassigned) [Compound 171] to `COc1nc(N)nc2c1ncn2[C@@H]1O[C@H](COP(=O)(N[C@@H](C)C(=O)OC(C)C)Oc2ccc(F)cc2)[C@@H](O)[C@@]1(C)N=[N+]=[N-]` (stereo partly shown) [Compound 243], the pEC50 falls from 6.30 to 5.85 (0.45 log units). The first is the more potent here.

Compared with `CC(C)OC(=O)[C@H](C)NP(=O)(OC[C@H]1O[C@@H](n2ccc(=O)[nH]c2=O)[C@](C)(N=[N+]=[N-])[C@@H]1O)Oc1ccccc1Cl` (stereo partly shown) [Compound 39], `CC(C)OC(=O)[C@H](C)NP(=O)(OC[C@H]1O[C@@H](n2ccc(=O)[nH]c2=O)[C@](C)(N=[N+]=[N-])[C@@H]1O)Oc1ccc(Cl)c(Cl)c1` (stereo partly shown) [Compound 92] is 0.81 log units higher in pEC50: 4.31 for the first, 5.12 for the second. The second is the more potent here.

Compared with `C[C@H](NP(=O)(OC[C@H]1O[C@@H](n2ccc(=O)[nH]c2=O)[C@](C)(N=[N+]=[N-])[C@@H]1O)Oc1cccc2ccccc12)C(=O)OCc1ccccc1` (stereo partly shown) [Compound 230], `C[C@H](NP(=O)(OC[C@H]1O[C@@H](n2ccc(N)nc2=O)[C@](C)(N=[N+]=[N-])[C@@H]1O)Oc1ccccc1)C(=O)OCc1ccccc1` (single isomer, unassigned) [Compound 191] is 0.25 log units lower in pEC50: 4.85 for the first, 4.60 for the second.

Work on `C[C@H](NP(=O)(OC[C@H]1O[C@@H](n2ccc(N)nc2=O)[C@](C)(N=[N+]=[N-])[C@@H]1O)Oc1ccc(F)cc1)C(=O)OC1CCCCC1` (stereo partly shown) [Compound 197] yielded a pEC50 of 6.40.

same assay, conditions: read-out: 1b EC50

First: COc1nc(N)nc2c1ncn2[C@@H]1O[C@H](COP(=O)(N[C@@H](C)C(=O)OCc2ccccc2)Oc2ccccc2)[C@@H](O)[C@@]1(C)N=[N+]=[N-] (single isomer, unassigned) [Compound 278]
Second: COC(=O)[C@H](C)NP(=O)(OC[C@H]1O[C@@H](n2cnc3c(OC)nc(N)nc32)[C@](C)(N=[N+]=[N-])C1O)Oc1ccccc1 (single isomer, unassigned) [Compound 260]
The pEC50 of the first is 0.30 log units lower: 5.14 for the first, 5.44 for the second. The second is the more potent here.

Going from `CCOc1nc(N)nc2c1ncn2[C@@H]1O[C@H](COP(=O)(N[C@@H](C)C(=O)OC)Oc2ccccc2)[C@@H](O)[C@@]1(C)N=[N+]=[N-]` (single isomer, unassigned) [Compound 143] to `CCOC(=O)[C@H](C)NP(=O)(OC[C@H]1O[C@@H](n2cnc3c(OCC)nc(N)nc32)[C@](C)(N=[N+]=[N-])[C@@H]1O)Oc1ccccc1Cl` (single isomer, unassigned) [Compound 359], the pEC50 falls from 6.22 to 5.48 (0.74 log units).

`CCOC(=O)[C@H](C)NP(=O)(OC[C@H]1O[C@@H](n2ccc(N)nc2=O)[C@](C)(N=[N+]=[N-])[C@@H]1O)Oc1ccccc1Cl` (stereo partly shown) [Compound 184] and `CCOC(=O)[C@H](C)NP(=O)(OC[C@H]1O[C@@H](n2ccc(N)nc2=O)[C@](C)(N=[N+]=[N-])[C@@H]1O)Oc1ccc(Cl)cc1` (single isomer, unassigned) [Compound 190] are within 0.2 log units of each other in pEC50: 5.24 for the first, 5.25 for the second.

Compared with `CC(C)COC(=O)[C@H](C)NP(=O)(OC[C@H]1O[C@@H](n2ccc(=O)[nH]c2=O)[C@](C)(N=[N+]=[N-])[C@@H]1O)Oc1ccccc1` (single isomer, unassigned) [Compound 210], `C[C@H](NP(=O)(OC[C@H]1O[C@@H](n2ccc(=O)[nH]c2=O)[C@](C)(N=[N+]=[N-])[C@@H]1O)Oc1ccccc1)C(=O)OCc1ccccc1` (single isomer, unassigned) [Compound 300] is 0.94 log units lower in pEC50: 5.48 for the first, 4.54 for the second. The first is the more potent here.

Going from `CCOC(=O)[C@H](C)NP(=O)(OC[C@H]1O[C@@H](n2cnc3c(OC)nc(N)nc32)[C@](C)(N=[N+]=[N-])[C@@H]1O)Oc1ccc(Cl)cc1` (single isomer, unassigned) [Compound 290] to `CC(C)OC(=O)[C@H](C)NP(=O)(OC[C@H]1O[C@@H](n2ccc(N)nc2=O)[C@](C)(N=[N+]=[N-])[C@@H]1O)Oc1ccc2c(c1)OCO2` (single isomer, unassigned) [Compound 335], the pEC50 falls from 6.10 to < 4.00.

With `COC(=O)[C@H](C)NP(=O)(OC)OC[C@H]1O[C@@H](n2ccc(N)nc2=O)[C@](C)(N=[N+]=[N-])[C@@H]1O` (single isomer, unassigned) [Compound 346] the pEC50 was < 4.00.
